From US12629406B2, “Alterations in endothelin receptors following hemorrhage and resuscitation by centhaquin” (MIDWESTERN UNIVERSITY, priority 2018, dated 2026)

Tests used:
IL-6 = assay: Plasma IL-6 in hemorrhaged rats (ELISA); assay type: in vivo, rat; settings: p<0.01
Description: (§1) Induction of Hemorrhagic Shock. Hemorrhage was induced by withdrawing blood from the femoral artery at a rate of approximately 0.5 to 1 mL/min until a MAP of 35 mmHg was reached. This MAP was maintained for 30 min by further withdrawal of blood, if necessary. The hemorrhagic shock model used in the present study is a well-established rodent model of manageable pressure hemorrhage (Buehler et al. 2000; Gulati et al. 1997a; Gulati and Sen 1998). The volume of blood loss was about approximately 8.0 ml in each rat and was similar in various groups, amounting to approximately 40% of the total blood. Measured hematocrit levels were similar in various groups. The duration of blood withdrawal was approximately 15 minutes.
(§2) Experimental design. […] The blood samples, for biochemical estimations, were collected at 30 minutes of resuscitation and cardiovascular parameters were monitored till 60 minutes after which the animal was sacrificed. […]

[1] = 24 human subjects; cited from earlier work
TNF-α = assay: Plasma TNF-α in hemorrhaged rats (ELISA); assay type: in vivo, rat; settings: p<0.01
Description: as §1, §2

IL-10 = assay: Plasma IL-10 in hemorrhaged rats (ELISA); settings: rat, in vivo
Description: as §1, §2

[2] = rat fixed pressure blood loss, rabbit uncontrolled bleeding with trauma, pig massive blood loss; cited from earlier work
[3] = cited from earlier work
ETB receptors = assay: ETB receptor expression in tissues of hemorrhaged rats (western blot); assay type: in vivo, rat; settings: for change in ETB receptor expression, abdominal aorta / change in ETB receptor expression, kidney medulla: compared to untreated hemorrhaged rats
Description: as §1
Experimental design. To determine the resuscitative effect of centhaquin on cardiovascular system and plasma cytokines in hemorrhagic shock, rats were randomly divided into five groups, Group 1: Sham control (Non-hemorrhaged) (n=5), Group 2: Hemorrhage with no resuscitation (n=5); Group 3: Hemorrhage followed by resuscitation with 3% hypertonic saline (vehicle) (n=5); Group 4: Hemorrhage followed by resuscitation with vehicle plus centhaquin (0.017 mg/kg) (n=5); and Group 5: Hemorrhage followed by resuscitation with vehicle plus centhaquin (0.05 mg/kg) (n=5). Resuscitation was started 30 min after induction of hemorrhagic shock as an intravenous infusion (1 mL/min) through femoral vein using an infusion pump (Harvard Apparatus Infusion/Withdrawal Pump, Millis, MA). The blood samples, for biochemical estimations, were collected at 30 minutes of resuscitation and cardiovascular parameters were monitored till 60 minutes after which the animal was sacrificed. The volume of resuscitative solution was kept equal to the volume of blood loss.
Estimation of ETA and ETB receptor expression. Expression of ETA and ETB receptors was determined using the western blotting technique (Briyal et al. 2015; Leonard and Gulati 2013) with some modifications. After completion of cardiovascular experiments animals were sacrificed and the organs (brain, heart, liver, lung, kidney and abdominal aorta) were immediately dissected out, flash frozen on dry ice, and stored at −80° C. for further analysis. The tissue was homogenized with 10×(w/v) RIPA lysis buffer (20 mM Tris-HCl pH 7.5, 120 mM NaCl, 1.0% TritonX-100, 1.0% sodium deoxycholate, 0.1% sodium dodecyl sulfate (SDS), 10% glycerol, 1 mM disodium ethylene diamine tetraacetic acid (EDTA), 1 mM ethylene glycol-bis(β-aminoethyl ether)-N,N,N′,N′-tetraacetic acid tetrasodium salt (EGTA), phosphatase inhibitors and Complete Mini Protease inhibitor cocktail tablet (Roche Diagnostics, Indianapolis, IN). Proteins were isolated in solubilized form and concentrations were measured by Folin-Ciocalteu's phenol reagent (Lowry et al. 1951). Solubilized protein (60 μg) was denatured in Laemmli sample buffer (Bio-Rad Laboratories, Hercules, CA), resolved on 10% sodium dodecyl sulfate-polyacrylamide gel electrophoresis (SDS-PAGE) and then transferred onto the nitrocellulose membrane followed by blocking the membrane with SuperBlock® Blocking Buffer in tris-buffered saline (TBS) (ThermoFisher Scientific, Hanover Park, IL). The membranes were washed three times with 1×TBS-Tween (TBST) and incubated with rabbit polyclonal anti-ETA receptor (ab85163, Abcam, Cambridge, MA, 1:1000) or anti-ETB receptor (ab117529, Abcam, Cambridge, MA, 1:1000) or mouse monoclonal anti-β-actin (a1978, Sigma-Aldrich, St. Louis, MO) antibodies, followed by horseradish peroxidase (HRP)-conjugated secondary antibodies goat anti-rabbit (sc2004, Santa Cruz Biotechnology, Dallas, TX, 1:2000) or goat anti-mouse (ab98693, Abcam, Cambridge, MA, 1:10,000) and visualized by SuperSignal® West Pico Chemiluminescent Substrate (ThermoFisher Scientific, Hanover Park, IL) using the ChemiDoc™ MP Imaging System (Bio-Rad Laboratories, Hercules, CA) and then analyzed using ImageJ (NIH) software.

Cc1cccc(N2CCN(CCc3ccc4ccccc4n3)CC2)c1 [centhaquin, 2-[2-(4-(3-methyphenyl)-1-piperazinyl)]ethyl-quinoline]
plasma IL-6 level compared to hypertonic saline alone (IL-6): further increased | safety and tolerability [1]: safe and was well tolerated | plasma TNF-α level compared to hypertonic saline alone (TNF-α): further increased | plasma IL-10, hemorrhagic shock versus resuscitation with hypertonic saline or centhaquin (IL-10): no statistically significant difference | mortality following hypovolemic shock [2]: highly effective in reducing the mortality | survival of hemorrhaged rats ([3]; administered in one-fifth the volume of blood loss): improved the survival | blood lactate ([3]; rat model of hemorrhagic shock): decreased blood lactate | cardiac output (CO) ([3]; rat model of hemorrhagic shock): significantly improved CO | survival ([3]; rat model of hemorrhagic shock): improved survival | change in ETB receptor expression, abdominal aorta (ETB receptors; centhaquin 0.017 mg/kg): 79.7% | change in ETB receptor expression, kidney medulla (ETB receptors; centhaquin 0.017 mg/kg): 76.6% | change in ETB receptor expression, abdominal aorta (ETB receptors; centhaquin 0.05 mg/kg): 57.4% | change in ETB receptor expression, kidney medulla (ETB receptors; centhaquin 0.05 mg/kg): 69.4% | change in ETB expression, abdominal aorta (summary) (ETB receptors; dose not given): 79% | ETB receptor expression in brain, heart, liver, lungs and kidney cortex (ETB receptors; hemorrhage and resuscitation): no change | shock-induced decrease (−34%) in ETB expression, renal medulla (ETB receptors; summary, not attenuated by saline): completely attenuated
